According to US9540323B2 (BRISTOL-MYERS SQUIBB COMPANY, priority 2012, dated 2017):

Tests used:
[1] = biological target: cloned human P2Y1 receptors (Homo sapiens (Human), UniProt P47900); test: Binding Assay B - Scintillation Proximity Assay (SPA) for P2Y1 binding, [33P] 2MeS-ADP; conditions: SPA, 0.3 nM [33P] 2MeS-ADP, Cheng-Prusoff; read-out: P2Y1 Ki (nM) using binding assay B
Description: Binding Assay B—Scintillation Proximity Assay (SPA) for P2Y1 Binding
A SPA membrane binding assay was used to identify inhibitors of [^33P] […] Reactions were allowed to proceed to completion at room temperature for 1 hour followed by centrifugation of the plate for 5 min. About 40 μL of the aqueous solution was aspirated. Plates were sealed and the [^33P]

[2] = tested on: human platelet rich plasma (PRP); test: ADP induced platelet aggregation assay; conditions: Homo sapiens, Platelet, 5 min, read-out: PA IC50 (μM) @ 10 μM ADP, human PRP, 10 μM ADP, AUC at 5 minute

Sequence of cloned human P2Y1 receptors (P47900 whole entry): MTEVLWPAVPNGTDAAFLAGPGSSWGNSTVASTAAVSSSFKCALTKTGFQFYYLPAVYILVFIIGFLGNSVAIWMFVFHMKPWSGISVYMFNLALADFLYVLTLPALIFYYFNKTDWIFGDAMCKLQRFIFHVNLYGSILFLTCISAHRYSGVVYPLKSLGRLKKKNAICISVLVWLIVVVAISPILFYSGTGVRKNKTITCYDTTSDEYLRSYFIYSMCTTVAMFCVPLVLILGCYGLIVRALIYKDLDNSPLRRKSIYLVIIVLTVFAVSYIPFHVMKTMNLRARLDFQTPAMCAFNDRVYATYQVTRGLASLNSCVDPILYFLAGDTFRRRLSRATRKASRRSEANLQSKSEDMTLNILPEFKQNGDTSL

Structure (SMILES)	Ki [1] [nM]	IC50 [2] [µM]
CC1(C)CN(c2ccccc2NC(=O)Nc2csc(Cl)n2)c2c(O)ccc(-c3nc4cc(Cl)ccc4s3)c21 [Example 147, 1-(2-(4-(5-Chlorobenzo[d]thiazol-2-yl)-7-hydroxy-3,3-dimethylindolin-1-yl)phenyl)-3-(2-chlorothiazol-4-yl)urea]	70.8	0.77
CCOC(=O)c1ccc(O)c2c1C(C)(C)CN2c1ccccc1NC(=O)Nc1ccc(OC(F)(F)F)cc1 [Example 81, Ethyl 7-hydroxy-3,3-dimethyl-1-(2-(3-(4-(trifluoromethoxy)-phenyl)-ureido)phenyl)indoline-4-carboxylate]	8.6	0.91
CC1(C)CN(c2ccccc2NC(=O)Nc2ccc(OC(F)(F)F)cc2)c2c(O)ccc(-c3nc4cc(Cl)ccc4o3)c21 [Example 84, 1-(2-(4-(5-Chlorobenzo[d]oxazol-2-yl)-7-hydroxy-3,3-dimethylindolin-1-yl)phenyl)-3-(4-(trifluoromethoxy)phenyl)urea]	16.7	0.58
CC1(C)CN(c2ccccc2NC(=O)Nc2ccc(OC(F)(F)F)cc2)c2c(O)ccc(Br)c21 [Example 40, 1-(2-(4-Bromo-7-hydroxy-3,3-dimethylindolin-1-yl)phenyl)-3-(4-(trifluoromethoxy)phenyl)urea]	13.8	0.53
CC1(C)CN(c2ccccc2NC(=O)Nc2nc3ccc(F)nc3s2)c2c(O)ccc(-c3nc4ccc(Cl)cc4o3)c21 [Example 108, 1-(2-(4-(6-Chlorobenzo[d]oxazol-2-yl)-7-hydroxy-3,3-dimethylindolin-1-yl)phenyl)-3-(5-fluorothiazolo[5,4-b]pyridin-2-yl)urea]	9.7	0.19
Cn1nc(C(F)(F)F)cc1-c1c(F)cc(O)c2c1C(C)(C)CN2c1ccccc1NC(=O)Nc1ccc(OC(F)(F)F)cc1 [Example 183, 1-(2-(5-Fluoro-7-hydroxy-3,3-dimethyl-4-(1-methyl-3-(trifluoromethyl)-1H-pyrazol-5-yl)indolin-1-yl)phenyl)-3-(4-(trifluoromethoxy)phenyl)urea]	11.3	0.21
CC1(C)CN(c2ccccc2NC(=O)Nc2ccc(OC(F)(F)F)cc2)c2c(O)cc(F)c(-c3cc(C(F)(F)F)no3)c21 [Example 262, 1-(2-(5-Fluoro-7-hydroxy-3,3-dimethyl-4-(3-(trifluoromethyl)isoxazol-5-yl)indolin-1-yl)phenyl)-3-(4-(trifluoromethoxy)phenyl)urea]	12.9	0.92
CC1(C)CN(c2ccccc2NC(=O)Nc2ccc(F)cc2F)c2c(O)ccc(C(F)(F)F)c21 [Example 14, 1-(2,4-Difluorophenyl)-3-(2-(7-hydroxy-3,3-dimethyl-4-(trifluoromethyl)indolin-1-yl)phenyl)urea]	5.2	0.48
CC1(C)CN(c2ccccc2NC(=O)Nc2ccc(OC(F)(F)F)cc2)c2c(O)ccc(-c3cc(F)cc(F)c3)c21 [Example 197, 1-(2-(4-(3,5-Difluorophenyl)-7-hydroxy-3,3-dimethylindolin-1-yl)phenyl)-3-(4-(trifluoromethoxy)phenyl)urea]	5.1	0.18
CC1(C)CN(c2ccc(F)cc2NC(=O)Nc2nc3ccc(F)cc3s2)c2c(O)ccc(C(F)(F)F)c21 [Example 63, 1-(5-Fluoro-2-(7-hydroxy-3,3-dimethyl-4-(trifluoromethyl)indolin-1-yl)phenyl)-3-(6-fluorobenzo[d]thiazol-2-yl)urea]	20.8	0.18
CCC1(CC)CN(c2ccccc2NC(=O)Nc2nc3c(s2)CN(CC(F)(F)F)CC3)c2c(O)ccc(Cl)c21 [Example 55, 1-(2-(4-Chloro-3,3-diethyl-7-hydroxyindolin-1-yl)phenyl)-3-(5-(2,2,2-trifluoroethyl)-4,5,6,7-tetrahydrothiazolo[5,4-c]pyridin-2-yl)urea]	16.2	0.63
